According to publication PMC3565832 (mBio, 2013):

Test system: HSV-1
Assay: HSV-1 IE gene expression in HeLa cells
Format: cell-based
Settings: 50 µM, 5 h pretreatment, HSV-1 0.1 PFU/cell for 2 h

C[C@H](NCc1ccc(OCc2cccc(F)c2)cc1)C(N)=O [Safinamide, safinamide]
inhibition of expression of viral IE (ICP27 and ICP4) genes: did not show substantial inhibition
